Biological target: T1, TrkB (Homo sapiens, UniProt Q16620)
T1 construct: purchased Upstate 14-507M
Test: Trk B Fluorescence Polarization Kinase Assay
Format: biochemical
Conditions: 150 uM ATP, 50 nM TrkB; uncertainty ±10%
Experimental: The compounds of the present invention are also specific inhibitors of TrkB. Selection of preferred compounds of Formula I for use as TrkB inhibitors was performed in the following manner. The TrkB assay utilized the fluorescein-labeled phosphopeptide and the anti-phosphotyrosine antibody included in the Panvera Phospho-Tyrosine Kinase Kit (Green) supplied by Invitrogen. When TrkB phosphorylated poly Glu4Tyr, the fluorescein-labeled phosphopeptide was displaced from the anti-phosphotyrosine antibody by the phosphorylated poly Glu4Tyr, thus decreasing the FP value. The TrkB kinase reaction was incubated at room temperature for 30 minutes under the following conditions: 50 nM TrkB (Upstate, catalog #14-507M), 20 ug/mL poly Glu4Tyr, 150 uM ATP, 5 mM MgCl2, 1% compound in DMSO. The kinase reaction was stopped with the addition of EDTA. The fluorescein-labeled phosphopeptide and the anti-phosphotyrosine antibody were added and incubated for 30 minutes at room temperature. Data points were an average of triplicate samples. Inhibition and IC50 data analysis were done with GraphPad Prism using a non-linear regression fit with a multiparamater, sigmoidal dose-response (variable slope) equation.

T1 sequence (Q16620 526-822 limits assumed): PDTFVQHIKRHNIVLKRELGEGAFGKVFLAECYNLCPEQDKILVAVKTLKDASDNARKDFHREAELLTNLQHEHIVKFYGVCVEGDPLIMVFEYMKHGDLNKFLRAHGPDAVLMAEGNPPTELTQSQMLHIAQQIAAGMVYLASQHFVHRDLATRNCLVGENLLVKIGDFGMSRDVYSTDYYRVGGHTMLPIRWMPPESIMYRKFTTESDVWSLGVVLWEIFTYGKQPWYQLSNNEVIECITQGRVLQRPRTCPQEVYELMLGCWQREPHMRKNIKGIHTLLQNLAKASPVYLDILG

| IC50 [µM] | Structure (SMILES) |
| --- | --- |
| 2.74 | COc1cc2ncnc(N3CCC(NC(=O)Nc4ccc(Oc5ccccc5)cc4)C3)c2cc1OC (centres unmarked) [Compound 51, 1-[1-(6,7-Dimethoxy-quinazolin-4-yl)-pyrrolidin-3-yl]-3-(4-phenoxy-phenyl)-urea] |
| 22.7 | COc1cc2ncnc(N3CCC(NC(=O)Nc4ccc(N(C)C)cc4)C3)c2cc1OC (centres unmarked) [Compound 52, 1-[1-(6,7-Dimethoxy-quinazolin-4-yl)-pyrrolidin-3-yl]-3-(4-dimethylamino-phenyl)-urea] |
| 4.07 | COc1cc2ncnc(N3CCC(NC(=O)Nc4ccc(OC5CCCC5)cc4)C3)c2cc1OC (centres unmarked) [Compound 53, 1-(4-Cyclopentyloxy-phenyl)-3-[1-(6,7-dimethoxy-quinazolin-4-yl)-pyrrolidin-3-yl]-urea] |
| 44.6 | COc1cc2ncnc(N3CCC(OC(=O)Nc4ccc(OC5CCCC5)cc4)C3)c2cc1OC (centres unmarked) [Compound 54, (4-Cyclopentyloxy-phenyl)-carbamic acid 1-(6,7-dimethoxy-quinazolin-4-yl)-pyrrolidin-3-yl ester] |
| > 46 | COc1cc2ncnc(N3CCC(OC(=O)Nc4ccc(OC5CCCC5)cc4)CC3)c2cc1OC [Compound 55, (4-Cyclopentyloxy-phenyl)-carbamic acid 1-(6,7-dimethoxy-quinazolin-4-yl)-piperidin-4-yl ester] |
| 6.58 | COc1cc2ncnc(N3CCC(COC(=O)Nc4ccc(OC5CCCC5)cc4)CC3)c2cc1OC [Compound 56, (4-Cyclopentyloxy-phenyl)-carbamic acid 1-(6,7-dimethoxy-quinazolin-4-yl)-piperidin-4-ylmethyl ester] |

More lines, now with the values behind:

| Structure (SMILES) | IC50 [µM] |
| --- | --- |
| COc1cc2ncnc(N3CCC(NC(=O)Nc4ccc(N5CCCC5)nc4)C3)c2cc1OC (centres unmarked) [Compound 46, 1-[1-(6,7-Dimethoxy-quinazolin-4-yl)-pyrrolidin-3-yl]-3-(6-pyrrolidin-1-yl-pyridin-3-yl)-urea] | 24.8 |
| COc1cc2ncnc(N3CCC(NC(=O)Nc4ccc(N5CCCCC5)cc4)C3)c2cc1OC (centres unmarked) [Compound 47, 1-[1-(6,7-Dimethoxy-quinazolin-4-yl)-pyrrolidin-3-yl]-3-(4-piperidin-1-yl-phenyl)-urea] | 12 |
| COc1cc2ncnc(N3CCC(NC(=O)Nc4ccc(Cl)cc4)C3)c2cc1OC (centres unmarked) [Compound 48, 1-(4-Chloro-phenyl)-3-[1-(6,7-dimethoxy-quinazolin-4-yl)-pyrrolidin-3-yl]-urea] | 16 |
| COc1cc2ncnc(N3CCC(NC(=O)Nc4ccc(N5CCCC5)cc4)C3)c2cc1OC (centres unmarked) [Compound 49, 1-[1-(6,7-Dimethoxy-quinazolin-4-yl)-pyrrolidin-3-yl]-3-(4-pyrrolidin-1-yl-phenyl)-urea] | 3.88 |
| COc1cc2ncnc(N3CCC(NC(=O)Nc4ccc(C5CCCCC5)cc4)C3)c2cc1OC (centres unmarked) [Compound 50, 1-(4-Cyclohexyl-phenyl)-3-[1-(6,7-dimethoxy-quinazolin-4-yl)-pyrrolidin-3-yl]-urea] | > 46 |

— US20070004763A1, “AMINOQUINOLINE AND AMINOQUINAZOLINE KINASE MODULATORS” (priority 2005, published 2007)
